Results taken from the supplement of paper PMC10307832.

What was measured:
Experiment in all cases: relative viability (nuclei count vs DMSO), 5 days (fraction); higher = more cells survive
[1] = test system: BEN
In short: (§1)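 Relative viability divides the nuclei count in treated wells by that in vehicle wells. Lung cancer cell lines were seeded in 1536-well plates, dosed by pin tool the next day, and fixed and stained after 5 days in one step with final 0.05% Triton X-100, 1% formaldehyde and 1 ug/ml Hoechst. Dosing was a single drug or a fixed anchor-drug dose plus five library-drug doses (not always all listed) in √10 steps, and values are medians of duplicate plates imaged at 4×.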

[2] = test system: CAL-12T
In short: as §1

[3] = test system: H3255
In short: as §1

[4] = test system: HARA
In short: as §1

[5] = test system: HCC-15
In short: as §1

[6] = test system: HCC-366
In short: as §1

[7] = test system: LC-2-ad
In short: as §1

[8] = test system: LOU-NH91
In short: as §1

[9] = test system: LXF-289
In short: as §1

[10] = test system: NCI-H1395
In short: as §1

[11] = test system: NCI-H1651
In short: as §1

[12] = test system: NCI-H1793
In short: as §1

[13] = test system: NCI-H1915
In short: as §1

[14] = test system: NCI-H2085
In short: as §1

[15] = test system: NCI-H2170
In short: as §1

[16] = test system: NCI-H2347
In short: as §1

[17] = test system: NCI-H322M
In short: as §1

[18] = test system: NCI-H441
In short: as §1

[19] = test system: NCI-H522
In short: as §1

[20] = test system: NCI-H647
In short: as §1

[21] = test system: NCI-H650
In short: as §1

[22] = test system: NCI-H661
In short: as §1

[23] = test system: NCI-H838
In short: as §1

[24] = test system: SK-MES-1
In short: as §1

[25] = test system: UMC-11
In short: as §1

Nc1cccc2c1CN(C1CCC(=O)NC1=O)C2=O (stereo not given) [Lenalidomide] + Cc1cc(Nc2cc(N3CCN(C)CC3)nc(Sc3ccc(NC(=O)C4CC4)cc3)n2)n[nH]1 [Tozasertib] (partner 0.1 µM)
relative viability ([1]; first compound 0.253 µM): 0.594 | relative viability ([1]; first compound 0.8 µM): 0.462 | relative viability ([1]; first compound 2.53 µM): 0.441 | relative viability ([1]; first compound 8 µM): 0.57 | relative viability ([2]; first compound 0.253 µM): 0.3 | relative viability ([2]; first compound 0.8 µM): 0.302 | relative viability ([2]; first compound 2.53 µM): 0.463 | relative viability ([2]; first compound 8 µM): 0.352 | relative viability ([3]; first compound 0.253 µM): 0.602 | relative viability ([3]; first compound 0.8 µM): 0.79 | relative viability ([3]; first compound 2.53 µM): 0.662 | relative viability ([3]; first compound 8 µM): 0.536 | relative viability ([4]; first compound 0.253 µM): 0.0944 | relative viability ([4]; first compound 2.53 µM): 0.133 | relative viability ([4]; first compound 8 µM): 0.103 | relative viability ([5]; first compound 0.253 µM): 0.352 | relative viability ([5]; first compound 0.8 µM): 0.431 | relative viability ([5]; first compound 2.53 µM): 0.446 | relative viability ([5]; first compound 8 µM): 0.496 | relative viability ([6]; first compound 0.253 µM): 0.14 | relative viability ([6]; first compound 0.8 µM): 0.128 | relative viability ([6]; first compound 2.53 µM): 0.154 | relative viability ([6]; first compound 8 µM): 0.131 | relative viability ([7]; first compound 0.253 µM): 0.538 | relative viability ([7]; first compound 2.53 µM): 0.469 | relative viability ([7]; first compound 8 µM): 0.469 | relative viability ([8]; first compound 0.253 µM): 0.715 | relative viability ([8]; first compound 0.8 µM): 0.737 | relative viability ([8]; first compound 2.53 µM): 0.715 | relative viability ([8]; first compound 8 µM): 0.73 | relative viability ([9]; first compound 0.253 µM): 0.206 | relative viability ([9]; first compound 0.8 µM): 0.191 | relative viability ([9]; first compound 2.53 µM): 0.25 | relative viability ([9]; first compound 8 µM): 0.229 | relative viability ([10]; first compound 0.253 µM): 0.692 | relative viability ([10]; first compound 0.8 µM): 0.753 | relative viability ([10]; first compound 2.53 µM): 0.818 | relative viability ([10]; first compound 8 µM): 0.678 | relative viability ([11]; first compound 0.253 µM): 0.749 | relative viability ([11]; first compound 0.8 µM): 0.772 | relative viability ([11]; first compound 2.53 µM): 0.819 | relative viability ([11]; first compound 8 µM): 0.815 | relative viability ([12]; first compound 0.253 µM): 0.356 | relative viability ([12]; first compound 2.53 µM): 0.383 | relative viability ([12]; first compound 8 µM): 0.349 | relative viability ([13]; first compound 0.253 µM): 0.45 | relative viability ([13]; first compound 0.8 µM): 0.471 | relative viability ([13]; first compound 2.53 µM): 0.437 | relative viability ([13]; first compound 8 µM): 0.527 | relative viability ([14]; first compound 0.253 µM): 0.819 | relative viability ([14]; first compound 0.8 µM): 0.886 | relative viability ([14]; first compound 2.53 µM): 0.938 | relative viability ([14]; first compound 8 µM): 0.878 | relative viability ([15]; first compound 0.253 µM): 0.612 | relative viability ([15]; first compound 0.8 µM): 0.608 | relative viability ([15]; first compound 2.53 µM): 0.747 | relative viability ([15]; first compound 8 µM): 0.753 | relative viability ([16]; first compound 0.253 µM): 0.633 | relative viability ([16]; first compound 0.8 µM): 0.414 | relative viability ([16]; first compound 2.53 µM): 0.643 | relative viability ([16]; first compound 8 µM): 0.599 | relative viability ([17]; first compound 0.253 µM): 0.471 | relative viability ([17]; first compound 0.8 µM): 0.566 | relative viability ([17]; first compound 2.53 µM): 0.49 | relative viability ([17]; first compound 8 µM): 0.439 | relative viability ([18]; first compound 0.253 µM): 0.72 | relative viability ([18]; first compound 0.8 µM): 0.572 | relative viability ([18]; first compound 2.53 µM): 0.621 | relative viability ([18]; first compound 8 µM): 0.522 | relative viability ([19]; first compound 0.253 µM): 0.574 | relative viability ([19]; first compound 2.53 µM): 0.52 | relative viability ([19]; first compound 8 µM): 0.511 | relative viability ([20]; first compound 0.253 µM): 0.339 | relative viability ([20]; first compound 0.8 µM): 0.27 | relative viability ([20]; first compound 2.53 µM): 0.26 | relative viability ([20]; first compound 8 µM): 0.355 | relative viability ([21]; first compound 0.253 µM): 0.795 | relative viability ([21]; first compound 2.53 µM): 0.869 | relative viability ([21]; first compound 8 µM): 0.714 | relative viability ([22]; first compound 0.253 µM): 0.379 | relative viability ([22]; first compound 0.8 µM): 0.368 | relative viability ([22]; first compound 2.53 µM): 0.335 | relative viability ([22]; first compound 8 µM): 0.374 | relative viability ([23]; first compound 0.253 µM): 0.322 | relative viability ([23]; first compound 0.8 µM): 0.28 | relative viability ([23]; first compound 2.53 µM): 0.317 | relative viability ([23]; first compound 8 µM): 0.298 | relative viability ([24]; first compound 0.253 µM): 0.865 | relative viability ([24]; first compound 0.8 µM): 0.802 | relative viability ([24]; first compound 2.53 µM): 0.913 | relative viability ([24]; first compound 8 µM): 0.98 | relative viability ([25]; first compound 0.253 µM): 0.192 | relative viability ([25]; first compound 0.8 µM): 0.21 | relative viability ([25]; first compound 2.53 µM): 0.192 | relative viability ([25]; first compound 8 µM): 0.195
